The values below come from PMC10815831, “Comparison of Nuclear Medicine Therapeutics Targeting PSMA among Alpha-Emitting Nuclides” (International Journal of Molecular Sciences, 2024).

Experiment [1] deals with T1, prostate specific membrane antigen (PSMA) (Homo sapiens, UniProt Q04609).
T1 construct: gene FOLH1
The experiment is described as follows: radioligand uptake in LNCaP (PSMA-high) cells, competition by unlabeled compound; PC3 (PSMA-low) as control. The class given is cell-based.

For experiment [2], the target named is T1, prostate specific membrane antigen (PSMA). Nature of the experiment: radioligand uptake in LNCaP (PSMA-high) cells, competition by unlabeled PSMA-617; PC3 (PSMA-low) as control. The class given is cell-based.

T1 sequence (Q04609 whole entry): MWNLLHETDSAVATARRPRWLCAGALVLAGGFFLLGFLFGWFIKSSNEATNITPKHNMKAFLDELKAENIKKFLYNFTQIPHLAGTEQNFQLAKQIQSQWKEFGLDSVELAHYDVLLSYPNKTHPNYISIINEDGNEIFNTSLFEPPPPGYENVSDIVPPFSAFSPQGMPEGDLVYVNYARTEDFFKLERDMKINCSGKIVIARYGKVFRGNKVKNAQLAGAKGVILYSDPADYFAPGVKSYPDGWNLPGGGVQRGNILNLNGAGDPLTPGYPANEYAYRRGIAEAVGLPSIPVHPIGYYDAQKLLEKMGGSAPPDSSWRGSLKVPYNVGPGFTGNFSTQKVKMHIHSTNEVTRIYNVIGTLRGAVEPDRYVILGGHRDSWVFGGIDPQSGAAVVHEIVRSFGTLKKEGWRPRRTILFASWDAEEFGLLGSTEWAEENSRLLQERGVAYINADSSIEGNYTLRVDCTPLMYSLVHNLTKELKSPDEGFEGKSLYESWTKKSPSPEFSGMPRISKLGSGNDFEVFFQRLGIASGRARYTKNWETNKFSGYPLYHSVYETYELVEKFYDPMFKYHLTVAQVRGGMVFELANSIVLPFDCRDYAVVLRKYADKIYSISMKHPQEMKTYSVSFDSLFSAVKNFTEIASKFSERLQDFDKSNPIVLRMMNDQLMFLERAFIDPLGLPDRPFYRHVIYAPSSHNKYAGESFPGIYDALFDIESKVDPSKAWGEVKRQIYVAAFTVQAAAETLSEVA

In the case of `O=C(O)CC[C@H](NC(=O)N[C@@H](CCCCNC(=O)[C@@H](Cc1ccc2ccccc2c1)NC(=O)c1ccc(CNC(=O)[C@@H](CCC(=O)O)NC(=O)[C@@H](CCC(=O)O)NC(=O)Cc2ccc([211At])cc2)cc1)C(=O)O)C(=O)O` [211At-PSMA-5], the IC50 – broadly, the concentration that gives 50% inhibition – in experiment [1] stood at 0.32 nM.
In turn, `O=C([O-])CN1CCN(CC(=O)[O-])CCN(CC(=O)NCC2CCC(C(=O)NC(Cc3ccc4ccccc4c3)C(=O)NCCCC[C@H](NC(=O)N[C@@H](CCC(=O)O)C(=O)O)C(=O)O)CC2)CCN(CC(=O)[O-])CC1.[225Ac+3]` (some centres unmarked) [225Ac-PSMA-617] returned an IC50 in experiment [2] of 2.64 nM.
